Patent US20220228985A1, “FLUORESCENT COMPOSITION FOR DETECTING BIOLOGICAL MATERIAL” (Bioacts Corporation, priority 2021, published 2022)

Tested on: red blood cells
Experiment: Microscopic analysis of hemolytic efficacy of surfactant compound
Assay type: cell-based
Settings: E-check (low concentration), microscope X200 DIC, control PBS, FIG. 4
Description: Microscopic analysis was performed to visually confirm the blood hemolysis effect of the blood analysis reagent prepared with the compound of Chemical Formula 3 and the compound of Chemical Formula 4 as the surfactant compound. The blood analysis reagent prepared in E-check (low concentration), a quality control reagent, was treated and microscopic analysis was performed. The analysis was performed with a Nikon ECLIPSE microscope, and measured under X200 DIC filter conditions. As a control, a sample obtained by treating PBS in an E-check reagent was used.

CCCCCCCCn1cc(COCCOCCOCCOCCOCCOCCOCCOCCOCCOCCO)nn1 [Compound 3b]
hemolysis of red blood cells: most cleanly hemolyzed

CCCCCCCCCCCCCCn1cc(COCCOCCOCCOCCOCCOCCOCCOCCOCCOCCOCCOCCOCCOCCOCCOCCOCCOCCOCCOCCOCCO)nn1 [Chemical Formula 4]
hemolysis of red blood cells: excellent efficacy in hemolysis of red blood cells
